From article PMC6168621 (Frontiers in Pharmacology, 2018)
Entries after “also recorded” stand apart in the source; their conditions may differ. Where two headings read alike, the source gives them in different places. Marks after values point to notes of the source that are not given here.

How the values were obtained:
[1] = target: T1, hCB1Rs (Homo sapiens, UniProt P21554); assay: biochemical; conditions: for Emax: read-out: EMAX, [^35S]GTPγS binding (maximal G-protein activation)
T1 construct: host or cells: CHO-K1 (CHO-hCB1)
T1 sequence (P21554 whole entry): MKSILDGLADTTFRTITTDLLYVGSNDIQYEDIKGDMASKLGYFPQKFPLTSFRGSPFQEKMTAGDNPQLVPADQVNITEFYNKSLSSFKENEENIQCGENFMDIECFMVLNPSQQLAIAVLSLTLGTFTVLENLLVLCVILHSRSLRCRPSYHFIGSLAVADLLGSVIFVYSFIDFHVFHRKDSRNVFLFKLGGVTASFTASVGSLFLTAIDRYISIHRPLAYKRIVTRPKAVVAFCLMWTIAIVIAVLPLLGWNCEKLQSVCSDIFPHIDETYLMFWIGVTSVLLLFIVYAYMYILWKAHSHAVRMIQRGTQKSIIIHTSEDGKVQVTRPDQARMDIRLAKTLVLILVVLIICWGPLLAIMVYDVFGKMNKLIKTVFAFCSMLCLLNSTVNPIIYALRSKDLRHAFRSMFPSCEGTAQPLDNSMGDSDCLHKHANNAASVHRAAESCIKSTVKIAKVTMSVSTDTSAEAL

[2] = target: T1, hCB1Rs; assay: biochemical; format: binding; conditions: for Ki: [^3H]CP-55,940 binding, CHO-hCB1 membranes
[3] = tested on: human liver microsomes (HLMs); assay: Glucuronidation of AB-PINACA and JWH-018 metabolites in HLMs; format: in vitro ADME; conditions: 90 min
Procedure: A typical incubation mixture (30 μl of total volume) contained 100 mM Tris-HCl (pH 7.4), 5 mM MgCl2, 3 mM UDPGA, 80 μg/ml alamethicin, 50 μg HLMs, 5 mM saccharolactone, and 50 μM 4OH- or 5OH-AB-PINACA. […] After incubation at 37°C for 90 min, reactions were terminated by the addition of 30 μl cold ethanol. Following removal of the protein by centrifugation at 12,000 × g for 10 min, a 5-μl portion of the sample was subjected to UPLC. All incubations were performed in triplicate.
Parent compounds and glucuronidated metabolites were identified by the ACQUITY UPLC System with a UV detector (Milford, MA, United States). […] The column was re-equilibrated at initial conditions for 2.5 min between runs. The elution was monitored at 300 nm. The retention times of 4OH-AB-PINACA, 5OH-AB-PINACA, 4OH-AB-PINACA glucuronide, and JWH-018-M2 were 3.989, 3.994, 3.646, and 5.391 min.
FIGURE 4 Glucuronidation of 4OH- and 5OH-AB-PINACA in human liver microsomes (HLMs). 4OH-AB-PINACA (A) and 5OH-AB-PINACA (B) were incubated for 90 min with HLMs in the presence or absence of UDPGA. The terminated reaction mixtures were subjected to the UPLC analysis and the eluent was monitor with a UV detector at 300 nm and chromatograms presented. (C) The peak area of the glucuronide was estimated from the triplicate determinations. The data are presented as mean value ± SD. ND, not detected. (D) Comparison of glucuronidation of JWH-018-M2 and 4OH-AB-PINACA with HLMs. JWH-018-M2 and 4OH-AB-PINACA (5 μM) were incubated for 90 min with HLMs in the presence or absence of UDPGA. The terminated reaction mixtures were subjected to the UPLC analysis and the eluent was monitor with a UV detector at 300 nm. The remaining amount of the substrates was quantified by using standard curves of JWH-018-M2 and 4OH-AB-PINACA. The data was shown as mean value ± SD. ^∗P < 0.001. TEXT PRINTED IN THE PICTURE: (C) 5OH-AB-PINACA: Peak area (μV*sec): ND

[4] = target: T1, hCB1Rs; assay: cell-based; format: cell-based
[5] = tested on: CD1 mice; assay: Cannabinoid-elicited hypothermia (rectal temperature); format: in vivo
Procedure: For in vivo studies, rimonabant was synthesized in the laboratory of Dr. Thomas E. Prisinzano at the University of Kansas School of Pharmacy (Lawrence, KS, United States), and provided to us as a generous gift. AB-PINACA, and its 4OH metabolite were obtained from Cayman Chemical Company (Ann Arbor, MI, United States). All cannabinoids were dissolved in a vehicle consisting of ethanol, emulphor and saline at a ratio of 1:1:18. Injections were administered via the intraperitoneal (IP) route at a constant volume of […]. Rimonabant was administered at a dose of 10 mg/kg, 60 min before injection of AB-PINACA or its 4OH metabolite.
Adult male CD1 mice (Charles River Laboratory, Wilmington, MA, United States) were housed three subjects per cage (15.2 cm × 25.4 cm × 12.7 cm) in a temperature-controlled room in a vivarium accredited by the Association for Assessment and Accreditation of Laboratory Animal Care, and given ad libitum food (Laboratory Rodent Diet no. 5001; PMI Feeds, St. Louis, MO, United States) and water. The vivarium was maintained at 22°C ± 2°C and 45–50% humidity, with lights set to a 12-h light/dark cycle (lights on at 6:00 AM, CST). […] All procedures were carried out in accordance with the Guide for Care and Use of Laboratory Animals as adopted and promulgated by the National Institutes of Health (NIH). The experimental protocol has been approved by the Institutional Animal Care and Use Committee (IACUC) at the University of Arkansas for Medical Sciences (UAMS).
Mice were habituated to handling and weighing prior to initiation of experimental procedures. A digital thermometer (model BAT-12, PhysiTemp, Clifton, NJ, United States) equipped with a Ret-3 mouse probe (model 50314, Stoelting Co., Dale, IL, United States) was lubricated and inserted approximately 2 cm into the rectum. Stable temperatures were obtained within ∼6 s. Rectal temperature data were sampled immediately before injection, and at 10, 30, 60, 120, 240, and 360 min after injection.
Curve-fitting was conducted utilizing GraphPad Prism® v6.0b (GraphPad Software, Inc.; San Diego, CA, United States). Non-linear regression for one-site competition was used to determine the IC50 for competition receptor binding. The Cheng-Prusoff equation ([Cheng and Prusoff, 1973]) was employed to convert the experimental IC50 values obtained from competition receptor binding experiments to Ki values (a quantitative measure of receptor affinity). Curve fitting of concentration-effect curves via non-linear regression was also employed to determine the […] or IC50 (measures of potency) and Emax or Imax (measures of efficacy) for the [^35S]GTPγS and adenylyl cyclase experiments, respectively. All dissociation constants and measurements of potency were converted to pKi, pEC50, or pIC50 values by taking the negative log of each value so that parametric tests could be used for statistical comparisons. A one-way ANOVA, followed by Tukey’s Multiple Comparison post hoc test, was used to determine statistical significance (P < 0.05). For animal studies, temperature data are shown as mean values (±SEM) for groups of subjects at each drug dose and time point. For statistical analyses, only the highest dose of AB-PINACA or its 4OH- metabolite (with and without rimonabant pretreatment) were considered. The lowest temperatures recorded for each subject within each group (regardless of when after drug administration it occurred) were compared to vehicle data using a one-way ANOVA and Tukey’s HSD post hoc test. Significance was judged at P < 0.05.

[6] = target: T1, hCB1Rs; format: cell-based

Compound	Emax ([1]; CHO-hCB1 membranes, mean ± SEM) [%]	EC50 ([1]; CHO-hCB1 membranes, mean ± SEM, read-out: pEC50, [^35S]GTPγS binding (converted)) [nM]	EC50 ([1]; CHO-hCB1 membranes, read-out: EC50, [^35S]GTPγS binding) [nM]	hCB1R affinity relative to the parent compound AB-PINACA (fold less) ([2]; 159 nM vs 4 nM)	Ki ([2]; Ki, 0.2 nM [^3H]CP-55,940, Cheng-Prusoff) [nM]	Ki ([2]; pKi, 0.2 nM [^3H]CP-55,940, mean ± SEM) [nM]	Remaining amount of substrate in the presence vs absence of UDPGA ([3]; 5 μM substrate, HLMs, Figure 4D)	Glucuronide formation (UPLC peak) ([3]; 50 μM substrate, HLMs with UDPGA, 37°C)	IMAX, cAMP accumulation (maximal adenylyl cyclase inhibition) ([4]; intact CHO-hCB1 cells, 10 μM forskolin, 15 min)	IC50 ([4]; intact CHO-hCB1 cells, 10 μM forskolin, 15 min, read-out: IC50, cAMP accumulation (adenylyl cyclase inhibition)) [nM]	IC50 ([4]; intact CHO-hCB1 cells, 10 μM forskolin, 15 min, read-out: pIC50, cAMP accumulation (converted)) [nM]	Lowest rectal temperature, hypothermic effect vs vehicle ([5]; 100.0 mg/kg i.p., P < 0.05)	Lowest rectal temperature, drug alone vs rimonabant pretreatment ([5]; 100.0 mg/kg i.p., rimonabant 10.0 mg/kg 60 min before, P < 0.05)	Dose required for a similar level of hypothermia relative to AB-PINACA ([5]; 100 mg/kg vs 10 mg/kg) [fold]	Effect on rectal temperature ([5]; 30.0 and 100.0 mg/kg, i.p.)	Emax [1] [%]	Efficacy (Imax) of CP-55,940 to inhibit adenylyl cyclase [6] [%]	IMAX, cAMP accumulation (maximal adenylyl cyclase inhibition) [4]
CC(O)CCCn1nc(C(=O)NC(C(N)=O)C(C)C)c2ccccc21 (stereo not drawn) [4OH-AB-PINACA]	92.6 ± 13.4	813	952	approximately 40 fold	159	151	such disappearance of substrate is not observed	unique peak is observed; also recorded: slightly glucuronidated	87.0 ± 2.9^a %	141	129	significantly different	significantly different	~10	dose- and time-dependent hypothermic effects	–	–	–
CCCCCCC(C)(C)c1ccc([C@@H]2C[C@H](O)CC[C@H]2CCCO)c(O)c1 [CP-55,940, reference compound]	–	–	–	–	–	–	–	–	–	–	–	–	–	–	–	64 ± 3.8	86.7 ± 6.4	86.7 ± 6.4^a %
